# Results reported in ChEMBL document CHEMBL1201862, “PubChem BioAssay data set” (2004).
#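 Protocol summary: plate cells (96-well), add compound at 5 concentrations, incubate 48 h, interpolate endpoints linearly. Here, GI50 denotes the concentration required for 50% inhibition of growth.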 Active and inactive are the calls of the source. Rule as the data show it: active = GI50 up to about 1.1 µM and inactive = higher.
# Assays:
# Assay in all cases: inhibition of tumour cell growth, NCI panel, 48 h
# 786-0 = test system: 786-0
# A498 = test system: A498
# A549 = test system: A549
# ACHN = test system: ACHN
# BT-549 = test system: BT-549
# CAKI-1 = test system: CAKI-1
# COLO 205 = test system: COLO 205
# DU-145 = test system: DU-145
# EKVX = test system: EKVX
# HCT-116 = test system: HCT-116
# HCT-15 = test system: HCT-15
# HOP-62 = test system: HOP-62
# HOP-92 = test system: HOP-92
# HT-29 = test system: HT-29
# IGROV-1 = test system: IGROV-1
# K562 = test system: K562
# KM12 = test system: KM12
# LOX IMVI = test system: LOX IMVI
# M14 = test system: M14
# MDA-MB-231 = test system: MDA-MB-231
# MDA-MB-435 = test system: MDA-MB-435
# MDA-N = test system: MDA-N
# MOLT-4 = test system: MOLT-4
# Malme-3M = test system: Malme-3M
# NCI-H226 = test system: NCI-H226
# NCI-H23 = test system: NCI-H23
# NCI-H460 = test system: NCI-H460
# NCI-H522 = test system: NCI-H522
# NCI/ADR-RES = test system: NCI/ADR-RES
# OVCAR-3 = test system: OVCAR-3
# OVCAR-4 = test system: OVCAR-4
# OVCAR-5 = test system: OVCAR-5
# OVCAR-8 = test system: OVCAR-8
# RPMI-8226 = test system: RPMI-8226
# RXF 393 = test system: RXF 393
# SF-268 = test system: SF-268
# SF-295 = test system: SF-295
# SF-539 = test system: SF-539
# SK-MEL-28 = test system: SK-MEL-28
# SK-MEL-5 = test system: SK-MEL-5
# SK-OV-3 = test system: SK-OV-3
# SN12C = test system: SN12C
# SNB-19 = test system: SNB-19
# SNB-75 = test system: SNB-75
# SW-620 = test system: SW-620
# T47D = test system: T47D
# TK-10 = test system: TK-10
# U-251 = test system: U-251
# UACC-257 = test system: UACC-257
# UO-31 = test system: UO-31
# CCRF-CEM = test system: CCRF-CEM
# HL-60 = test system: HL-60
# MCF7 = test system: MCF7
# PC-3 = test system: PC-3
# SK-MEL-2 = test system: SK-MEL-2
# SR = test system: SR
# UACC-62 = test system: UACC-62
smiles,measurement,setting,value
N#CC(c1cc(Cl)ncn1)c1nc2ccccc2s1 (stereo not drawn),GI50,786-0,3.77 µM (inactive)
same,GI50,A498,21.8 µM (inactive)
same,GI50,A549,27.8 µM (inactive)
same,GI50,ACHN,18.3 µM (inactive)
same,GI50,BT-549,5 µM (inactive)
same,GI50,CAKI-1,18.6 µM (inactive)
same,GI50,COLO 205,14.8 µM (inactive)
same,GI50,DU-145,5.56 µM (inactive)
same,GI50,EKVX,20.9 µM (inactive)
same,GI50,HCT-116,7.53 µM (inactive)
same,GI50,HCT-15,3.74 µM
same,GI50,HOP-62,14.1 µM (inactive)
same,GI50,HOP-92,3.57 µM (inactive)
same,GI50,HT-29,10.3 µM (inactive)
same,GI50,IGROV-1,6.92 µM (inactive)
same,GI50,K562,4.93 µM (inactive)
same,GI50,KM12,3.87 µM (inactive)
same,GI50,LOX IMVI,4.72 µM (inactive)
same,GI50,M14,17.1 µM (inactive)
same,GI50,MDA-MB-231,11.1 µM (inactive)
same,GI50,MDA-MB-435,18.1 µM (inactive)
same,GI50,MDA-N,6.03 µM (inactive)
same,GI50,MOLT-4,3.42 µM (inactive)
same,GI50,Malme-3M,10.8 µM (inactive)
same,GI50,NCI-H226,25.8 µM (inactive)
same,GI50,NCI-H23,5.04 µM (inactive)
same,GI50,NCI-H460,4.27 µM (inactive)
same,GI50,NCI-H522,2.07 µM (inactive)
same,GI50,NCI/ADR-RES,3.29 µM (inactive)
same,GI50,OVCAR-3,7.01 µM (inactive)
same,GI50,OVCAR-4,6.46 µM (inactive)
same,GI50,OVCAR-5,18.1 µM (inactive)
same,GI50,OVCAR-8,3.85 µM (inactive)
same,GI50,RPMI-8226,2.49 µM (inactive)
same,GI50,RXF 393,16.1 µM (inactive)
same,GI50,SF-268,5.25 µM (inactive)
same,GI50,SF-295,15.6 µM (inactive)
same,GI50,SF-539,5.42 µM (inactive)
same,GI50,SK-MEL-28,19.3 µM (inactive)
same,GI50,SK-MEL-5,16.4 µM (inactive)
same,GI50,SK-OV-3,14.8 µM (inactive)
same,GI50,SN12C,2.61 µM (inactive)
same,GI50,SNB-19,5.93 µM (inactive)
same,GI50,SNB-75,13.6 µM (inactive)
same,GI50,SW-620,4.62 µM (inactive)
same,GI50,T47D,2.67 µM (inactive)
same,GI50,TK-10,4.81 µM (inactive)
same,GI50,U-251,4.02 µM (inactive)
same,GI50,UACC-257,10.5 µM (inactive)
same,GI50,UO-31,16.6 µM (inactive)
CCOC(=O)/C(C(=O)c1ccc([N+](=O)[O-])cc1)=C(\NS(=O)(=O)c1cc(C)c(Cl)cc1[S-])[n+]1ccc(N(C)C)cc1,GI50,786-0,30.3 µM (inactive)
same,GI50,A498,21.4 µM (inactive)
same,GI50,A549,38.8 µM (inactive)
same,GI50,ACHN,30.1 µM (inactive)
same,GI50,BT-549,35.5 µM (inactive)
same,GI50,CAKI-1,35.1 µM (inactive)
same,GI50,CCRF-CEM,31.4 µM (inactive)
same,GI50,COLO 205,29.9 µM (inactive)
same,GI50,DU-145,31 µM (inactive)
same,GI50,HCT-116,19.2 µM (inactive)
same,GI50,HCT-15,34 µM
same,GI50,HL-60,30.1 µM (inactive)
same,GI50,HOP-62,29.4 µM (inactive)
same,GI50,HOP-92,3.27 µM (inactive)
same,GI50,HT-29,24 µM (inactive)
same,GI50,IGROV-1,45.3 µM (inactive)
same,GI50,K562,32.1 µM (inactive)
same,GI50,KM12,27.4 µM (inactive)
same,GI50,M14,31.1 µM (inactive)
same,GI50,MCF7,40.3 µM (inactive)
same,GI50,MDA-MB-231,47.9 µM (inactive)
same,GI50,MDA-MB-435,32.8 µM (inactive)
same,GI50,MDA-N,35.5 µM (inactive)
same,GI50,MOLT-4,32.2 µM (inactive)
same,GI50,Malme-3M,14.4 µM (inactive)
same,GI50,NCI-H226,51.8 µM (inactive)
same,GI50,NCI-H460,34.9 µM (inactive)
same,GI50,NCI-H522,12.4 µM (inactive)
same,GI50,NCI/ADR-RES,43.1 µM (inactive)
same,GI50,OVCAR-3,32.3 µM (inactive)
same,GI50,OVCAR-4,32.9 µM (inactive)
same,GI50,OVCAR-5,28.8 µM (inactive)
same,GI50,OVCAR-8,38.9 µM (inactive)
same,GI50,PC-3,16.7 µM (inactive)
same,GI50,RPMI-8226,28.1 µM (inactive)
same,GI50,RXF 393,64.1 µM (inactive)
same,GI50,SF-268,37.1 µM (inactive)
same,GI50,SF-295,16.7 µM (inactive)
same,GI50,SF-539,21.5 µM (inactive)
same,GI50,SK-MEL-28,28.3 µM (inactive)
same,GI50,SK-MEL-2,3.83 µM (inactive)
same,GI50,SK-MEL-5,42.8 µM (inactive)
same,GI50,SK-OV-3,25.8 µM (inactive)
same,GI50,SN12C,61.7 µM (inactive)
same,GI50,SR,31.6 µM (inactive)
same,GI50,T47D,50.8 µM (inactive)
same,GI50,TK-10,18.7 µM (inactive)
same,GI50,U-251,41.6 µM (inactive)
same,GI50,UACC-257,6.47 µM (inactive)
same,GI50,UACC-62,49.3 µM (inactive)
same,GI50,UO-31,35.3 µM (inactive)
CC[C@@]1(O)C(=O)OCc2c1cc1n(c2=O)Cc2c-1nc1ccccc1c2/C=N\c1ccc(N[C@@H]2c3cc4c(cc3[C@@H](c3cc(OC)c(O)c(OC)c3)[C@H]3C(=O)OC[C@@H]32)OCO4)cc1,GI50,786-0,< 0.0104 µM (active)
same,GI50,A549,0.038 µM (active)
same,GI50,ACHN,< 0.01 µM (active)
same,GI50,BT-549,0.11 µM (active)
same,GI50,DU-145,< 0.01 µM (active)
same,GI50,HCT-116,0.033 µM (active)
same,GI50,HOP-62,< 0.0136 µM (active)
same,GI50,K562,0.0585 µM (active)
same,GI50,M14,0.0194 µM (active)
same,GI50,MCF7,< 0.01 µM (active)
same,GI50,MOLT-4,< 0.01 µM (active)
same,GI50,NCI-H23,0.0198 µM (active)
same,GI50,NCI-H460,< 0.01 µM (active)
same,GI50,NCI-H522,0.0427 µM (active)
same,GI50,SF-268,< 0.0185 µM (active)
same,GI50,SK-MEL-5,0.0315 µM (active)
same,GI50,SNB-19,0.0446 µM (active)
same,GI50,SR,< 0.01 µM (active)
same,GI50,T47D,< 0.014 µM (active)
same,GI50,U-251,0.171 µM (active)
same,GI50,UACC-257,0.315 µM (active)
same,GI50,UO-31,0.0403 µM (active)
